One assay deals with Bartlett pears. In words: Hardness of sliced Bartlett pears. The protocol:
(§1) The firmness or hardness of the fruit is the force required for a probe to penetrate the fruit a given distance into the fruit. The firmness is determined using a Quality and Test System 25 and TA 40 probe from Stevens Company. The TA 40 probe a black acetate, 4.5 mm diameter, 20 mm long rod probe having a flat end. The following settings were employed in the QTS system: the test type is a compression test of one cycle, 0 second hold time, 0 second recovery, 5 g trigger point, 30 mm/min test speed, target unit distance, and a target value of 3 mm. The apple pieces were 1 cm thick.
(§2) Whole Red Delicious apples were rinsed with tap water, sanitized with a sodium hypochlorite solution containing 100 ppm chlorine, then cored and sliced. The apple slices were immersed in water for 0.5 to 2 minutes. Then the apple slices were dipped into produce preservative solution containing 4% ascorbic acid and 1.59% K2CO3 having a pH 5.69 for 1 minute. The slices were removed from the solution and drained for 1-2 minutes, sealed in polyethylene bags, and stored at 2-5° C. For controls, sliced apples either not treated or were dipped into either 4% ascorbic acid with 0.66% NaOH to adjust the pH to 4.45. For comparison, sliced apples were dipped into a solution containing 4% ascorbic acid and 1.22% Na2CO3 and having a pH of 5.58.
Bartlett pears were preserved with the fresh produce preservative as in Example 1a, with preservative solution that contained 4% ascorbic acid and 1.59% K2-CO3. For comparison, pears were treated with a comparative solution that contained 4% ascorbic acid and 1.22% Na2CO3.

A further assay has as its system Red Delicious apples. Put plainly: Hardness of sliced Red Delicious apples measured with QTS25. The protocol:
as §1, §2
The apples were evaluated and scored on a scale of 0-10 at time intervals. A score of 10 means that the fruit's color and appearance is as good as fresh cut fruit. A score of 7 is the minimum acceptable appearance. Hardness was measured with QTS25.

The subject of the next assay is Bramley apples. In words: Evaluation of sliced Bramley apples: appearance by visual inspection, firmness by bending. The protocol:
The firmness of the produce in Example 11a were evaluated by bending produce samples. Appearance was evaluated by visual inspection. The moisture was evaluated by measuring the amount of water the produce released.
Whole Bramley apples free from blemishes or bruises, were rinsed with water, sanitized with a sodium hypochlorite solution having 100 parts per million available chlorine, for two minutes, then peeled, cored, and sliced. The sliced apples were dipped into a fresh produce preservative solution that contained 5.12% strontium ascorbate; the fresh produce preservative solution contained 4.12% ascorbic acid and 1.79% […], for about 30 to 60 seconds. The apples were then drained in a colander for one minute. The apple slices and the colander were placed in 500 micron plastic bags from SunSet Packaging, stored at 4° C. and evaluated several times over a 15 day period. Water which collected in the plastic bag was removed and weighed.
For comparison, similarly prepared apple slices were placed in one of several solutions that contained either: 4.3% ascorbic acid and 1.13% hydrated MgCO3, specifically 4MgCO3.Mg(OH)25H2O or a 5.0% w/w aqueous solution of calcium ascorbate dihydrate, having a pH of 7.2; or a 5.3% w/w solution, of 4.12% ascorbic acid and 1.17% calcium carbonate,; or 6% ascorbic acid having a pH of 2.3; or 48 g ascorbic acid, 48 g citric acid, 16 g CaCl2 and 48 g NaCl in 800 g water, with a pH of 1.2; or 6% w/w citric acid and 6% w/w ascorbic acid; or 4.64% sodium ascorbate having 4.13% ascorbic acid and 1.18% NaCo3.
Bramley apples were preserved with the fresh produce preservative as in Example 11a except that the preservative solution contained lithium ascorbate. The lithium ascorbate solution was prepared by adding 7.35 grams of lithium carbonate and 35 grams ascorbic acid to 800 grams water.
For comparison, apple slices were placed in one of several comparative solutions: a 5.0% w/w aqueous solution of calcium ascorbate dihydrate containing 42.5 grams of calcium ascorbate dihydrate and 800 grams water with a pH of 7; a 5.3% w/w solution of calcium ascorbate containing 44.94 grams of mixture of 9.95 grams calcium carbonate and 35 grams ascorbic acid in 800 grams water with a pH of 5.5; a comparative solution, containing 48 g ascorbic acid, 48 g citric acid, 16 g CaCl2, 48 g NaCl and 800 g water with a pH of 1.2; a comparative solution of sodium ascorbate containing 28.45 grams of sodium carbonate 35 grams ascorbic acid, 800 grams water having a pH of 6.8; a comparative solution of calcium ascorbate containing 8.75 grams of calcium carbonate, 35 grams ascorbic acid, and to 800 grams water; a comparative solution of calcium ascorbate containing 9.95 grams of calcium carbonate, 35 grams ascorbic acid, and 765 grams water; a comparative solution of magnesium ascorbate containing 9.66 grams of hydrated magnesium carbonate 4MgCO3.Mg(OH)25H2O, 35 grams ascorbic acid, 765 grams water, having a pH of 6.4; and a comparative solution of zinc ascorbate containing 35 grams ascorbic acid, 12.74 grams zinc carbonate and 765 grams water, with a pH of 5.5. The apple slices were evaluated on day five.

The test system of a further assay is Granny Smith apples. Put plainly: Evaluation of sliced Granny Smith apples preserved with fresh produce preservative (scores). To be noted: scale to 10.
Another assay has as its system Hass avocadoes. Put plainly: Evaluation of sliced Hass avocadoes preserved with fresh produce preservative (scores). The protocol:
The texture, flavor, and moistness of the fruit were evaluated by tasting fruit samples. The color and/or appearance was also evaluated by visual inspection. The color, texture, moistness and flavor were then evaluated according to a scale of either 1 to 10, with 10 being the value assigned to a freshly cut piece of comparative fruit or vegetable. A value of less than 7 is not acceptable.
as §2
Hass avocadoes were preserved with the fresh produce preservative as in Example 1a, except that the preservative solution contained 9.3% ascorbic acid and 5.7% MnCl2.4H2O.
Sliced Hass avocadoes were preserved with the fresh produce preservative as in Example la, except that the preservative solution contained 6.5% ascorbic acid and 3.5% potassium chloride. For control, a 7% ascorbic acid solution was used.

Text for Granny Smith apples: Red Delicious apples and Granny Smith apples were preserved with the fresh produce preservative as in Example 1 a, except that the preservative solution contained 4% ascorbic acid and 1% Li2CO3.

For the compound `O=C1O[C@H]([C@@H](O)CO)C(O)=C1O` [Ascorbic Acid, ascorbic acid], the “Hardness” value with Bartlett pears (0 hour) came out at 2215 g; with Bartlett pears (1 week) it was 315 g; with Bartlett pears (2 weeks), 79 g; in the assay on Red Delicious apples (0 hour), 2083; with Red Delicious apples (1 week at 2-5° C.) it was 1578; with Red Delicious apples (2 week at 2-5° C.), 1072. Further, the Texture entry in the assay on Bramley apples (28 hr at 4° C.) is “Firm”; in the assay with Bramley apples (52 hr at 4° C.), “Firm”; in the assay on Bramley apples (191 hr at 4° C.) it was “soft”. Moreover, the “Appearance (visual inspection)” value in the assay with Bramley apples (191 hr at 4° C.) is “brown”. Besides, the color/appearance score is recorded as 6 in the assay with Granny Smith apples (1 week); 10 with Granny Smith apples (1 day); 10 in the assay on Granny Smith apples (3 days); 6 in the assay with Hass avocadoes (1 day, scale to 10 (Table 6), listed as 6% Ascorbic Acid control, 6% Ascorbic Acid control); 7 in the assay on Hass avocadoes (1 day, scale to 10 (Table 6), listed as 7% Ascorbic Acid control, 7% Ascorbic Acid control); 8.5 in the assay on Hass avocadoes (1 day, scale to 10 (Table 6), listed as 8% Ascorbic Acid control, 8% Ascorbic Acid control). The color/appearance score in the assay on Hass avocadoes (1 day, scale to 10 (Table 7)) is listed as 7; in the assay on Hass avocadoes (2 days, scale to 10 (Table 7)), 6; with Hass avocadoes (4 days, scale to 10 (Table 6)) it was 6.

For the origin of these results see patent publication US20130309380A1, “METHODS FOR PRESERVING FRESH PRODUCE” (NatureSeal, Inc., priority 2003, published 2013).
